Results reported in US10828370B2, “Selectin and ICAM/VCAM peptide ligand conjugates” (Purdue Research Foundation, priority 2014, dated 2020).

Columns and labels:
[1] = tested on: Selectin (E-Selectin and S-Selectin); details: selectin-binding peptide, free sequence; literature reference; cited from earlier work
[2] = tested on: TNF-α stimulated endothelial cells (ECs); assay: Relative binding affinity of EC-SEAL conjugates to endothelial cells (Streptavidin-HRP absorbance); format: cell-based; details: 3 μM treatments

| Substance | IC50 [1] | relative binding to endothelial cells vs single receptor-binding conjugates (FIG. 4) [2] |
| --- | --- | --- |
| IDLMQAR | ~200 µM |  |
| IEL/DGE-10,10 (peptide 1 IELLQARGC; peptide 2 DGEATDGC) |  | greater binding |
| IELLQAR | ~200 µM |  |
| QITWAQLWNMMK | ~0.16 µM |  |
